Measured values from patent US4035507A, “Novel, transient pro-drug forms of L-DOPA to treat Parkinson's disease” (Interx Research Corporation, priority 1976, dated 1977).

Experiment: not given
Details: Coutinaho, Spiegel et al. (1971); Weiss and Rossi (1963); cited from earlier work

SMILES | half-life of L-DOPA in the bloodstream
N[C@@H](Cc1ccc(O)c(O)c1)C(=O)O [(0), 3,4-dihydroxy-L-phenylalanine, reference compound] | approximately 45 minutes

Experiment: Blood concentration of L-DOPA following oral administration of L-DOPA or an L-DOPA derivative to Beagle dogs;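 further: dogs of both sexes, 12 to 14 Kg body weight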
Details: L-DOPA in blood after oral administration; three Beagle dogs
Source text: Reference to (a) refers to the values obtained from three Beagle dogs for each compound tested, the Beagle dogs being of both sexes and weighing from 12 to 14 Kg.
Reference to [L-DOPA] refers to the concentration of L-DOPA

SMILES | L-DOPA at the peak [µg/mL] | area under the curve [µg/h/mL] | time for reaching the peak [h]
N[C@@H](Cc1ccc(O)c(O)c1)C(=O)O [(0), 3,4-dihydroxy-L-phenylalanine, reference compound] | 0.9 | 2.6 | 1.8
COC(=O)[C@@H](N)Cc1ccc(OC(C)=O)c(OC(C)=O)c1.Cl [Compound (I), 3,4-diacetyloxy-L-phenylalanine-methyl ester, HCl] | 1.6 |  | 
CC(=O)Oc1ccc(C[C@H](N)C(=O)OCc2ccccc2)cc1OC(C)=O.Cl [Compound (II), 3,4-diacetyloxy-L-phenylalanine-benzyl ester hydrochloride] | 2.3 | 5.96 | 0.5
CC(=O)Oc1ccc(C[C@H](NC(=O)CN)C(=O)O)cc1OC(C)=O.Cl [Compound (III), glycyl-3,4-diacetyloxy-L-phenylalanine-hydrochloride] | 2.4 | 7.25 | 0.75
COC(=O)[C@H](Cc1ccc(OC(C)=O)c(OC(C)=O)c1)NC(=O)CN.Cl [Compound (IV), glycyl-3,4-diacetyloxy-L-phenylalanine-methyl ester hydrochloride] | 1.7 | 3.38 | 0.80
CC(=O)Oc1ccc(C[C@H](N)C(=O)NCC(=O)O)cc1OC(C)=O.Cl [Compound (V), 3,4-diacetyloxy-L-phenylalanyl-glycine hydrochloride] | 1.8 | 5.30 | 1.2

Same assay, conditions: blood, 0.5 hours after oral administration of 0.1 of L-DOPA or equivalent amount of derivative; three Beagle dogs

SMILES | [L-DOPA] (μg/ml) at time (hours) 0.5 [µg/mL]
N[C@@H](Cc1ccc(O)c(O)c1)C(=O)O [(0), 3,4-dihydroxy-L-phenylalanine, reference compound] | 0.14
CC(=O)Oc1ccc(C[C@H](N)C(=O)OCc2ccccc2)cc1OC(C)=O.Cl [Compound (II), 3,4-diacetyloxy-L-phenylalanine-benzyl ester hydrochloride] | 1.71
CC(=O)Oc1ccc(C[C@H](NC(=O)CN)C(=O)O)cc1OC(C)=O.Cl [Compound (III), glycyl-3,4-diacetyloxy-L-phenylalanine-hydrochloride] | 1.34
COC(=O)[C@H](Cc1ccc(OC(C)=O)c(OC(C)=O)c1)NC(=O)CN.Cl [Compound (IV), glycyl-3,4-diacetyloxy-L-phenylalanine-methyl ester hydrochloride] | 0.79
CC(=O)Oc1ccc(C[C@H](N)C(=O)NCC(=O)O)cc1OC(C)=O.Cl [Compound (V), 3,4-diacetyloxy-L-phenylalanyl-glycine hydrochloride] | 0.26

Same assay, conditions: blood, 1.0 hours after oral administration of 0.1 of L-DOPA or equivalent amount of derivative; three Beagle dogs

SMILES | [L-DOPA] (μg/ml) at time (hours) 1.0 [µg/mL]
N[C@@H](Cc1ccc(O)c(O)c1)C(=O)O [(0), 3,4-dihydroxy-L-phenylalanine, reference compound] | 0.64
CC(=O)Oc1ccc(C[C@H](N)C(=O)OCc2ccccc2)cc1OC(C)=O.Cl [Compound (II), 3,4-diacetyloxy-L-phenylalanine-benzyl ester hydrochloride] | 1.30
CC(=O)Oc1ccc(C[C@H](NC(=O)CN)C(=O)O)cc1OC(C)=O.Cl [Compound (III), glycyl-3,4-diacetyloxy-L-phenylalanine-hydrochloride] | 1.95
COC(=O)[C@H](Cc1ccc(OC(C)=O)c(OC(C)=O)c1)NC(=O)CN.Cl [Compound (IV), glycyl-3,4-diacetyloxy-L-phenylalanine-methyl ester hydrochloride] | 1.17
CC(=O)Oc1ccc(C[C@H](N)C(=O)NCC(=O)O)cc1OC(C)=O.Cl [Compound (V), 3,4-diacetyloxy-L-phenylalanyl-glycine hydrochloride] | 1.30

Same assay, conditions: blood, 1.5 hours after oral administration of 0.1 of L-DOPA or equivalent amount of derivative; three Beagle dogs

SMILES | [L-DOPA] (μg/ml) at time (hours) 1.5 [µg/mL]
CC(=O)Oc1ccc(C[C@H](N)C(=O)OCc2ccccc2)cc1OC(C)=O.Cl [Compound (II), 3,4-diacetyloxy-L-phenylalanine-benzyl ester hydrochloride] | 1.08
CC(=O)Oc1ccc(C[C@H](NC(=O)CN)C(=O)O)cc1OC(C)=O.Cl [Compound (III), glycyl-3,4-diacetyloxy-L-phenylalanine-hydrochloride] | 1.21
COC(=O)[C@H](Cc1ccc(OC(C)=O)c(OC(C)=O)c1)NC(=O)CN.Cl [Compound (IV), glycyl-3,4-diacetyloxy-L-phenylalanine-methyl ester hydrochloride] | 0.51
CC(=O)Oc1ccc(C[C@H](N)C(=O)NCC(=O)O)cc1OC(C)=O.Cl [Compound (V), 3,4-diacetyloxy-L-phenylalanyl-glycine hydrochloride] | 1.62

Same assay, conditions: blood, 2.0 hours after oral administration of 0.1 of L-DOPA or equivalent amount of derivative; three Beagle dogs

SMILES | [L-DOPA] (μg/ml) at time (hours) 2.0 [µg/mL]
N[C@@H](Cc1ccc(O)c(O)c1)C(=O)O [(0), 3,4-dihydroxy-L-phenylalanine, reference compound] | 0.87
COC(=O)[C@@H](N)Cc1ccc(OC(C)=O)c(OC(C)=O)c1.Cl [Compound (I), 3,4-diacetyloxy-L-phenylalanine-methyl ester, HCl] | 0.39
CC(=O)Oc1ccc(C[C@H](N)C(=O)OCc2ccccc2)cc1OC(C)=O.Cl [Compound (II), 3,4-diacetyloxy-L-phenylalanine-benzyl ester hydrochloride] | 0.55
CC(=O)Oc1ccc(C[C@H](NC(=O)CN)C(=O)O)cc1OC(C)=O.Cl [Compound (III), glycyl-3,4-diacetyloxy-L-phenylalanine-hydrochloride] | 0.43
COC(=O)[C@H](Cc1ccc(OC(C)=O)c(OC(C)=O)c1)NC(=O)CN.Cl [Compound (IV), glycyl-3,4-diacetyloxy-L-phenylalanine-methyl ester hydrochloride] | 0.33
CC(=O)Oc1ccc(C[C@H](N)C(=O)NCC(=O)O)cc1OC(C)=O.Cl [Compound (V), 3,4-diacetyloxy-L-phenylalanyl-glycine hydrochloride] | 0.80

Same assay, conditions: blood, 3.0 hours after oral administration of 0.1 of L-DOPA or equivalent amount of derivative; three Beagle dogs

SMILES | [L-DOPA] (μg/ml) at time (hours) 3.0 [µg/mL]
COC(=O)[C@@H](N)Cc1ccc(OC(C)=O)c(OC(C)=O)c1.Cl [Compound (I), 3,4-diacetyloxy-L-phenylalanine-methyl ester, HCl] | 0.12
CC(=O)Oc1ccc(C[C@H](N)C(=O)OCc2ccccc2)cc1OC(C)=O.Cl [Compound (II), 3,4-diacetyloxy-L-phenylalanine-benzyl ester hydrochloride] | 0.20
CC(=O)Oc1ccc(C[C@H](NC(=O)CN)C(=O)O)cc1OC(C)=O.Cl [Compound (III), glycyl-3,4-diacetyloxy-L-phenylalanine-hydrochloride] | 0.27
COC(=O)[C@H](Cc1ccc(OC(C)=O)c(OC(C)=O)c1)NC(=O)CN.Cl [Compound (IV), glycyl-3,4-diacetyloxy-L-phenylalanine-methyl ester hydrochloride] | 0.08
CC(=O)Oc1ccc(C[C@H](N)C(=O)NCC(=O)O)cc1OC(C)=O.Cl [Compound (V), 3,4-diacetyloxy-L-phenylalanyl-glycine hydrochloride] | 0.23

Same assay, conditions: blood, 4.0 hours after oral administration of 0.1 of L-DOPA or equivalent amount of derivative; three Beagle dogs

SMILES | [L-DOPA] (μg/ml) at time (hours) 4.0 [µg/mL]
N[C@@H](Cc1ccc(O)c(O)c1)C(=O)O [(0), 3,4-dihydroxy-L-phenylalanine, reference compound] | 0.22
CC(=O)Oc1ccc(C[C@H](N)C(=O)OCc2ccccc2)cc1OC(C)=O.Cl [Compound (II), 3,4-diacetyloxy-L-phenylalanine-benzyl ester hydrochloride] | 0.14
CC(=O)Oc1ccc(C[C@H](NC(=O)CN)C(=O)O)cc1OC(C)=O.Cl [Compound (III), glycyl-3,4-diacetyloxy-L-phenylalanine-hydrochloride] | 0.13
COC(=O)[C@H](Cc1ccc(OC(C)=O)c(OC(C)=O)c1)NC(=O)CN.Cl [Compound (IV), glycyl-3,4-diacetyloxy-L-phenylalanine-methyl ester hydrochloride] | 0.02
CC(=O)Oc1ccc(C[C@H](N)C(=O)NCC(=O)O)cc1OC(C)=O.Cl [Compound (V), 3,4-diacetyloxy-L-phenylalanyl-glycine hydrochloride] | 0.03

Same assay, conditions: blood, 6.0 hours after oral administration of 0.1 of L-DOPA or equivalent amount of derivative; three Beagle dogs

SMILES | [L-DOPA] (μg/ml) at time (hours) 6.0 [µg/mL]
N[C@@H](Cc1ccc(O)c(O)c1)C(=O)O [(0), 3,4-dihydroxy-L-phenylalanine, reference compound] | 0.11
CC(=O)Oc1ccc(C[C@H](N)C(=O)OCc2ccccc2)cc1OC(C)=O.Cl [Compound (II), 3,4-diacetyloxy-L-phenylalanine-benzyl ester hydrochloride] | 0.05
CC(=O)Oc1ccc(C[C@H](NC(=O)CN)C(=O)O)cc1OC(C)=O.Cl [Compound (III), glycyl-3,4-diacetyloxy-L-phenylalanine-hydrochloride] | 0.02
COC(=O)[C@H](Cc1ccc(OC(C)=O)c(OC(C)=O)c1)NC(=O)CN.Cl [Compound (IV), glycyl-3,4-diacetyloxy-L-phenylalanine-methyl ester hydrochloride] | 0
CC(=O)Oc1ccc(C[C@H](N)C(=O)NCC(=O)O)cc1OC(C)=O.Cl [Compound (V), 3,4-diacetyloxy-L-phenylalanyl-glycine hydrochloride] | 0
